Reference: patent publication US6835754B2, “Use of aryl nitrone compounds in methods for treating neuropathic pain” (Renovis, Inc., priority 2001, dated 2004)
“Also recorded” adds a separate entry of the source.

What was measured:
[1] = test system: male Swiss Webster mice, phenylquinone-induced writhing; test: Phenylquinone (PQ) writhing assay, % inhibition (Swiss Webster mice); type: in vivo; settings: for % Inhibition of Writhing Response / inhibition at 30 mg/kg: 30 mg/kg orally in 1% methyl cellulose, 1 hour before PQ 2 mg/kg ip; for inhibition at 30 mg/kg: read-out: % Inhibition of Writhing Response
Description: Test compounds were prepared as a suspension in 1% methyl cellulose and dosed orally at a dose of 30 mg/kg to male Swiss Webster mice weighing between 15 and 25 g with 10 mice per group. Test compounds was given 1 hour before the injection of phenylquinone. Phenylquinone (Sigma) was injected intraperitoneally at a dose of 2 mg/kg. After a 5 minute acclimation period, the number of writhes was counted for a 5 minute observation period for each mouse. The total number of writhes for each test compound was compared with a vehicle group. Results were expressed as % inhibition compared to the vehicle treated group means (Table VII).
In related experiment, a dose response relationship was established for the compound of Example 1 using the same experimental protocl as above. […] This is shown graphically in FIG. 2.

[2] = test system: ICR derived male mice, phenylquinone-induced writhing; test: Phenylquinone (PQ) Writhing assay, number of writhes (MDS Panlabs, ICR mice); type: in vivo; settings: for analgesia relative to vehicle control group (PQ writhing): 100, 30 and 10 mg/kg orally, P<0.01 for all 3 doses, Dunnett's test; for # Writhes (X + SEM): per os, 60 min before PQ 2 mg/kg ip, vehicle 20.8 ± 0.7, **P<0.01
Description: The compounds of Example 20 and Example 16 administered orally at doses of 10, 30 and 100 mg/kg. Vehicle of 2% Tween 80 in distilled water was used.
In this study, ICR derived male mice provided by animal breeding center of MDS Panlabs Taiwan, Ltd. were used. Space allocation for 10 animals was 45×23×15 cm. Mice were housed in APEC^R (Allentown Gaging, Allentown, N.J. 08501, U.S.A.) cages in a positive pressure isolation (NuAire^R, Mode: Nu-605, airflow velocity 50±5 ft/min, HEPA Filter) and maintained in a controlled temperature (22°-24° C.) and humidity (60%-80%) environment with 12 hour light dark cycles for at least one week in MDS Panlabs Taiwan laboratory prior to be used. Free access to standard lab chow for mice (Fwusow Industry Co., Limited, Taiwan) and tap water was granted. All aspects of this work including housing, experimentation and disposal of animals were performed in general accordance with the International Guiding Principles for Biomedical Research Involving Animals (CIOMS Publication No. ISBN 92 90360194, 1985).
The method of Siegmund, E. et al., Proc. Soc. Exp. Biol. Med. 95: 729-731, 1957, “A method for evaluating both non-narcotic and narcotic analgesics” was used. One hour after vehicle or compound administration, the number of writhes was recorded for each mouse in groups of 10 animals during a 5 to 10 minute period following 2 mg/kg. 1.p. of phenylquinone.
Groups of 10 male ICR mice weighing 22±2 gm were employed. Three doses (10, 30 and 100 mg/kg) of test substances suspended in a vehicle of 2% Tween 80 were administered per os. The control group received vehicle alone. […] The mean±SEM value of writhing number for each treatment group was then calculated and Dunnett's test was applied for comparison between vehicle and treated groups. Differences were considered significant when P<0.01.

[3] = test system: Chronic constriction injury (CCI) rats; test: Bennett chronic constriction injury (CCI) mononeuropathy, cold allodynia assay; type: in vivo, Sparague Dawley rats
Description: The peripheral mononeuropathy was induced by loose ligation of the sciatic nerve in anaesthetized rats. Ten days later, the nociceptive threshold was evaluated. The test compound is administered orally 1 hour prior to pain measurement. For comparison, a predose threshold was determined and a control experiment using 1% methyl cellulose was run. […] Animals were again tested 1-2 hrs post-dose. Predose and postdose average scores are determined.
In a related experiment a dose-response relationship for the compound of Example 20 was determined using the same experimental protocol. […] Animals were again tested 1 hr post-dose.

Rats (Sprague-Dawley) = test: Rat hot-plate assay (55° C.) for general analgesia; type: in vivo
Description: The purpose of the experiment was to determine if the compound of Example 16 has significant general analgesic activity as opposed to the desired activity against neuropathic pain. Test compound, 1% methylcellulose as a vehicle and morphine sulfate as a positive standard were tested for analgesic activity using a rat hot-plate assay (55° C.) of Eddy and Leimbach (J. Pharmacol. Ep. Ther 107; 385-393 (1953)) to evaluate nociceptive responses.
Rats (Sprague-Dawley, 217-227 g.) were used with 10 animals per group. Two pre-dose trials to nociceptive responses were determined before administration of compounds. Sixty minutes prior to testing, rats were dosed with either test compound (100 mg/kg, p.), as a suspension in 1% methylcellulose, or 1% methylcellulose as a vehicle ([…], p.). thirty minutes prior to testing, a third group was dosed with morphine sulfate (4.0 mg/kg, 2.0 ml/kg, sc) to test for nociceptive responses using a hot plate. Latency to rear paw licking response or jump response (1) was recorded using an electronic timer. The cut-off time for either response was 30 seconds. Statistical significance was assessed for paired groups using a Turkey test and between non-paired groups using Kruskal-Wallis test. A probability value of <0.05 was identified as statistically significant.

[4] = test system: Rats, Type II collagen assay; test: Hargreaves test (withdrawal latency to heat) in Type II collagen assay; type: in vivo; settings: rats Day 20 of Type II collagen assay
Description: The compound of Example 20 was further tested in a Hargreaves test, another accepted model for neuropathic pain.
Rats were tested on Day 20 in Type II collagen assay. […] Two hours after the 1st dose of drug on Day 20, animals were placed on a Hargreaves apparatus glass table. A high intensity light was placed under the one hind paw and illuminated, thus creating heat. At the same time, a clock was started. The light turned off, and the clock simultaneously stopped when the animal removed the paw. The time the rat is able to withstand the hear is considered withdrawal latency.

a-(4-hydroxy-3,5-dimethoxyphenyl)-N-tert-butylnitrone [Example 22]
% Inhibition of Writhing Response [1]: 32%

CC(C)(C)CC(C)(C)[N+]([O-])=Cc1cc(C(C)(C)C)c(O)c(C(C)(C)C)c1 [Example 21, α-(4-hydroxy-3,5-di-tert-butylphenyl)-N-tert-octylnitrone]
melting point: 113 to 115 °C | inhibition at 30 mg/kg ([1]; Mus musculus): 30%

COCOc1c(C(C)(C)C)cc(/C=[N+](\[O-])Cc2ccccc2)cc1C(C)(C)C [Example 31, α-(4-methoxymethoxy-3,5-di-tert-butylphenyl)-N-benzylnitrone]
melting point: 134.2 °C

COCOc1c(C(C)(C)C)cc(/C=[N+](\[O-])C(C)(C)C)cc1C(C)(C)C [Example 16, α-(4-Methoxymethoxy-3,5-di-tert-butylphenyl)-N-tert-butylnitrone]
analgesia relative to vehicle control group (PQ writhing) [2]: significant | # Writhes (X + SEM) ([2]; Dose 30 mg/kg): 3.9 ± 1.3** | # Writhes (X + SEM) ([2]; Dose 10 ml/kg as printed): 14.9 ± 1.2** | # Writhes (X + SEM) ([2]; Dose 100 ml/kg as printed): 1.3 ± 0.6** | effectiveness in cold stimulus latency, Bennett CCI model ([3]; 100 mg/kg, p.o., tested 1-2 hrs post-dose, FIG. 3): effective | effect on hot-plate latency compared with pre-dose (Rats (Sprague-Dawley); 100 mg/kg orally, sixty minutes prior to testing): did not significantly affect | hot-plate latency, post-dose (mean±SEM) (Rats (Sprague-Dawley); 100 mg/kg orally, sixty minutes prior to testing, pre-dose 7.9±1.0 seconds): 9.7 ± 1.0 s

a-(4-hydroxy-3,5-dimethylphenyl)-N-tert-butylnitrone [Example 24]
% Inhibition of Writhing Response [1]: 23%

CC(=O)Oc1c(C(C)(C)C)cc(/C=[N+](\[O-])C(C)(C)C)cc1C(C)(C)C [Example 1, α-(4-Acetoxy-3,5-di-tert-butylphenyl)-N-tert-butylnitrone]
inhibition at 30 mg/kg ([1]; Mus musculus): 65% | ED50 ([1]; Mus musculus, dose response, oral, mice): 2.7 mg/kg

CC(C)(C)c1cc(C=[N+]([O-])C(C)(C)CO)cc(C(C)(C)C)c1O [Example 25, a-(4-hydroxy-3,5-di-tert-butylphenyl)-N-(1,1-dimethyl-2-hydroxyethyl)nitrone]
% Inhibition of Writhing Response [1]: 30% | activity in PQ writhing model ([1]; mice, oral): Significant activity

COCOc1c(C(C)(C)C)cc(C=[N+]([O-])CC2CCCCC2)cc1C(C)(C)C [Example 29, α-(4-methoxymethoxy-3,5-di-tert-butylphenyl)-N-cyclohexylmethylnitrone]
melting point: 143.1 °C

CC(C)[N+]([O-])=Cc1cc(C(C)(C)C)c(O)c(C(C)(C)C)c1 [Example 27, a-(4-hydroxy-3,5-di-tert-butylphenyl)-N-(1-methylethyl)nitrone]
% Inhibition of Writhing Response [1]: 30%

CCC(C)(C)[N+]([O-])=Cc1cc(C(C)(C)C)c(O)c(C(C)(C)C)c1 [Example 26, a-(4-hydroxy-3,5-di-tert-butylphenyl)-N-(1,1-dimethylpropyl)nitrone]
% Inhibition of Writhing Response [1]: 48%

CCC(=O)Oc1c(C(C)(C)C)cc(/C=[N+](\[O-])C(C)(C)C)cc1C(C)(C)C [Example 8, α-(4-propionyloxy-3,5-di-tert-butylphenyl)-N-tert-butylnitrone]
melting point: 202 to 222 °C

COc1c(C(C)(C)C)cc(/C=[N+](\[O-])C(C)(C)C)cc1C(C)(C)C [Example 32, α-(4-methoxy-3,5-di-tert-butylphenyl)-N-tert-butylnitrone]
melting point: 223.1 °C | inhibition at 30 mg/kg ([1]; Mus musculus): 38%

CN1CC[C@]23c4c5ccc(O)c4O[C@H]2[C@@H](O)C=C[C@H]3[C@H]1C5.O=S(=O)(O)O [morphine sulfate, reference compound]
effect on hot-plate mean latency compared with pre-dose (Rats (Sprague-Dawley); 4.0 mg/kg sc, thirty minutes prior to testing): significantly increased | hot-plate mean latency to jump/hind paw licking response, post-dose (mean±SEM) (Rats (Sprague-Dawley); 4.0 mg/kg sc, thirty minutes prior to testing, pre-dose 9.9±1.0 seconds, P<0.001): 24.3 ± 2.3 s

CCOC(=O)COc1c(C(C)(C)C)cc(C=[N+]([O-])C(C)(C)C)cc1C(C)(C)C [Example 34, α-(4-carbethoxymethoxy-3,5-di-tert-butylphenyl)-N-tert-butylnitrone]
melting point: 188 °C

α-(4-n-Butanoyl-3,5-di-tert-butylphenyl)-N-tert-butylnitrone [Example 3]
% Inhibition of Writhing Response [1]: 62%

CC(C)(C)c1cc(C=[N+]([O-])C(C)(C)C)cc(C(C)(C)C)c1O [Example 20, α-(4-hydroxy-3,5-di-tert-butylphenyl)-N-tert-butylnitrone]
analgesia relative to vehicle control group (PQ writhing) [2]: significant | # Writhes (X + SEM) ([2]; Dose 30 mg/kg): 0.9 ± 0.5** | # Writhes (X + SEM) ([2]; Dose 10 ml/kg as printed): 3.1 ± 1.4** | # Writhes (X + SEM) ([2]; Dose 100 ml/kg as printed): 0.3 ± 0.2** | postdose latency score over vehicle, cold allodynia ([3]; 30 mg/kg p.o., 1 hr post-dose, p<0.05 vs. vehicle postdose): significant postdose latency score over vehicle | postdose latency score over vehicle, cold allodynia ([3]; 100 mg/kg p.o., 1 hr post-dose, p<0.01 vs. vehicle postdose): significant postdose latency score over vehicle | latency in the cold allodynia assay ([3]; various doses (10, 30, 100 mg/kg, p.o.), 1 hr post-dose, FIG. 4): increased latency | ED50 ([4]; Rattus norvegicus, po, two hours after dose): 6.25 mg/kg | activity in Hargreaves test (withdrawal latency) ([4]; doses of 10-100 mg/kg, FIG. 5): Significant activity; also recorded: does exhibit activity | inhibition at 30 mg/kg ([1]; Mus musculus): 62%

CC(=O)Oc1c(C(C)(C)C)cc(/C=[N+](/C)[O-])cc1C(C)(C)C [Example 9, α-(4-acetoxy-3,5-di-tert-butylphenyl)-N-methylnitrone]
melting point: 136 to 143 °C

α-(4-Isobutanoyl-3,5-di-tert-butylphenyl)-N-tert-butylnitrone [Example 2]
% Inhibition of Writhing Response [1]: 29%

CCOc1c(C(C)(C)C)cc(/C=[N+](\[O-])C(C)(C)C)cc1C(C)(C)C [Example 33, α-(4-ethoxy-3,5-di-tert-butylphenyl)-N-tert-butylnitrone]
melting point: 212.1 °C | inhibition at 30 mg/kg ([1]; Mus musculus): 4%

CCCCCC[N+]([O-])=Cc1cc(C)c(O)c(C)c1 [Example 23, a-(4-hydroxy-3,5-dimethylphenyl)-N-hexylnitrone]
% Inhibition of Writhing Response [1]: 47% | activity in PQ writhing model ([1]; mice, oral): Significant activity

CC(C)(C)c1cc(C=[N+]([O-])Cc2ccccc2)cc(C(C)(C)C)c1O [Example 28, a-(4-hydroxy-3,5-di-tert-butylphenyl)-N-benzylnitrone]
% Inhibition of Writhing Response [1]: 45%
